# Several values for one entry are separate records, joined by “and”; a condition that tells them apart may be missing. Equal entries are not always repeated. Entries after “also recorded” stand apart in the source; their conditions may differ. Square brackets hold non-standard residues; d marks the D form. Peptide text beside a SMILES is read from it. dNMeL = CN[C@H](CC(C)C)C(=O)O
# How the values were obtained:
# [1] = target: T1, synthetic peptide fragment corresponding to residues 11 to 25 of the Alzheimer's Aβ peptide (Homo sapiens, UniProt P05067); assay: thioflavin T fluorescence assay of Aβ peptide fragment aggregation into amyloid fibrils; assay type: biochemical
# T1 construct: residues 11 to 25 of the Alzheimer's Aβ peptide
# Method: Peptide X (SEQ ID NO: 2) was dissolved in water to a concentration of 10 mM (about 10 mg/ml). […]
# [2] = target: T2, Alzheimer's Aβ peptide fragment (Homo sapiens, UniProt P05067); assay: electron microscopy of Aβ peptide fragment aggregation; assay type: biochemical; conditions: 500 mM (so in the source) Peptide X, FIGS. 6 and 7
# T2 construct: residues 11 to 25 of the Alzheimer's Aβ peptide
# Method: Peptide X (SEQ ID NO: 2) was dissolved in water to a concentration of 10 mM (about 10 mg/ml). Alzheimer's Aβ peptide fragment, at a concentration of 50/M (about 0.1 mg/ml) in 50 mM sodium acetate buffer (pH 5.0), was incubated at 25° C. in the absence or presence of Peptide X (SEQ ID NO: 2) at concentrations ranging from 100 μM to 1 mM; the aggregation of the Aβ peptide fragment into insoluble β-fibres in the solutions was determined quantitatively after 20 minutes by measuring the fluorescence of 1%M added thioflavin T at 482 nm using an excitation wavelength of 440 nm. […] aliquots of these solutions were then analysed by electron microscopy to confirm that Peptide X (SEQ ID NO: 2) had inhibited and/or reversed the aggregation of the Alzheimer's Aβ peptide fragment into insoluble β-fibres.
# [3] = solubility in aqueous solutions; assay type: physicochemical; conditions: over a wide range of pH values
# Excerpt: The two positively charged arginine side chains assist the peptide to penetrate cell membranes and the blood-brain barrier by making electrostatic interactions with the negatively charged phosphate head groups of their constituent phospholipid molecules, resulting in the formation of inverted micelles which carry the peptide molecules across these membranes.
structure (smiles),measurement,setting,value
"CC(=O)N[C@H](CC(C)C)C(=O)N(C)[C@H](CC(C)C)C(=O)N[C@H](CC(C)C)C(=O)N(C)[C@H](CC(C)C)C(=O)N[C@H](CCCNC(=N)N)C(=O)N[C@H](CCCNC(=N)N)C(N)=O [Peptide X, Nα-acetyl-(D-leucine)-(Nα-methyl-D-leucine)-(D-leucine)-(Nα-methyl-D-leucine)-(D-arginine)-(D-arginine)-NH2] (Ac-[dL][dNMeL][dL][dNMeL][dR][dR]-NH2)",inhibition at 200 µM,"[1]; 200 μM Peptide X, Aβ fragment in 50 mM sodium acetate pH 5.0, 25° C., 20 minutes, FIG. 5",> 60%
same,disaggregation of preformed amyloid fibrils,[1]; Peptide X added to the Aβ peptide fragment after incubation,able to disaggregate preformed amyloid fibrils
same,reduction in Alzheimer's Aβ peptide aggregation,"[1]; Peptide X concentration of 100 mM (so in the source), FIG. 5",50%
same,inhibition of aggregation of Aβ peptide fragment into amyloid fibrils by electron microscopy,[2],almost completely inhibited aggregation; also recorded: substantial elimination of aggregation
same,solubility,[3],≥ 10000 µM and ≥ 10000 µg/mL
